The results in this text go back to US6403532B1, “Herbicidal synergistic composition, and method of controlling weeds” (Syngenta Crop Protection, Inc., priority 1995, dated 2002).

Common to all, as to assay type: in vivo
In data set [1] the test system is transplanted rice. In words: Herbicidal activity in paddy rice (transplanted), run-in method: crop plant tolerance. The procedure:
(§1) Herbicidal Activity in Paddy Rice (transplanted):
(§2) The test plants are sown or planted in standard soil in shallow plastic containers under greenhouse conditions. The containers are then filled with water to soil level. After 3 days, the water level is raised by 2 cm, and the test substances are applied in the form of an aqueous suspension (Formulation Example F7, c)) by the run-in method (application into the water). The test plants are then grown on in the greenhouse under optimal conditions. 25 days after application, the test is evaluated using a % scale (100%=complete damage, 0%=no activity).
(§3) Test plants: transplanted rice, Sagittaria pygmaea, Scirpus juncoides and Heterantera.

Data set [2] concerns Scirpus juncoides. In words: Herbicidal activity in paddy rice (transplanted), run-in method: Scirpus juncoides. The conditions noted are these: 25 days after application.
Description: (§4) A synergistic effect is always present when the activity of the active ingredient combination I and II, and/or III, and/or IV and/or V exceeds the total of the activity of the active ingredients applied singly.
(§5) The expected herbicidal activity Ae for a given combination of two herbicides can be calculated as follows (cf. COLBY, S. R., “Calculating synergistic and antagonistic response of herbicide combinations”, Weeds 15, pages 20-22, 1967):
(§6) X=per cent herbicidal activity in the treatment with the compound of formula I using a rate of application of p kg per hectare in comparison with untreated control (=0%).
(§7) Y=per cent herbicidal activity in the treatment with the compound of formulae II to V using a rate of application of q kg per hectare in comparison with untreated control.
(§8) Ae=expected herbicidal activity (per cent herbicidal activity comparison with the untreated control) after treatment with the compounds of formulae I and II to V at a rate of application of p+q kg of active ingredient per hectare.
(§9) If the activity actually observed exceeds the expected value Ae, synergism is present.
as §1, §2, §3

Data set [3] deals with Heterantera. In words: Herbicidal activity in paddy rice (transplanted), run-in method: Heterantera. Conditions: 25 days after application.
Description: as §4, §5, §6, §7, §8, §9, §1, §2, §3

Data set [4] concerns Sagittaria pygmaea. Put plainly: Herbicidal activity in paddy rice (transplanted), run-in method: Sagittaria pygmaea. Conditions: 25 days after application.
Description: as §4, §5, §6, §7, §8, §9, §1, §2, §3
Table B1: Experiments in transplanted rice with Sagittaria pygmaea, using the run-in method

Setting [5] is: 60 g of active ingredient/ha, run-in method, 25 days after application.
The mark [6] stands for this setting: 250 g of active ingredient/ha, run-in method, 25 days after application.
[7] abbreviates: 500 g of active ingredient/ha, run-in method, 25 days after application.

As to `CCOC(=O)c1cnn(C)c1S(=O)(=O)NC(=O)Nc1nc(OC)cc(OC)n1` [1.2], the “Crop plant transplanted rice” value in data set [1] (8 g of active ingredient/ha, run-in method, 25 days after application) worked out at 0%; in data set [1] (15 g of active ingredient/ha, run-in method, 25 days after application) it was 0%; in data set [1] (30 g of active ingredient/ha, run-in method, 25 days after application) it was 0%. The “Weed Scirpus junc.” value was 0% in data set [2] (15 g of active ingredient/ha) and 20% in data set [2] (30 g of active ingredient/ha). The “Weed Heterantera” value in data set [3] (8 g of active ingredient/ha), in data set [3] (15 g of active ingredient/ha) and in data set [3] (30 g of active ingredient/ha) was 0% in each case.
For `CCCOCCN(C(=O)CCl)c1c(CC)cccc1CC` [2.3, 2-chloro-2′,6′-diethyl-N-(2-propoxyethyl)acetanilide], the “Crop plant transplanted rice” value is 0% in data set [1] (setting [5]); 0% in data set [1] (setting [6]); 0% in data set [1] (375 g of active ingredient/ha, run-in method, 25 days after application); 0% in data set [1] (setting [7]). Further, the results for the “Weed Sagittaria pygm.” value in data set [4] (250 g of active ingredient/ha), in data set [4] (375 g of active ingredient/ha) and in data set [4] (500 g of active ingredient/ha) were 25%, 55% and 50%, respectively. Also, the “Weed Heterantera” value in data set [3] (60 g of active ingredient/ha) is 0%; in data set [3] (375 g of active ingredient/ha), 80%.
On to `CN(C(=O)COc1nc2ccccc2s1)c1ccccc1` [2.1, 2-(1,3-benzothiazol-2-yloxy)-N-methylacetanilide], for which the “Crop plant transplanted rice” value in data set [1] (in vivo) turned out to be 0%. For the same molecule, the “Weed Sagittaria pygm.” value in data set [4] (500 g of active ingredient/ha) and in data set [4] (1000 g of active ingredient/ha) was 0% throughout. The “Weed Scirpus junc.” value is 0% in data set [2] (125 g of active ingredient/ha), 65% in data set [2] (250 g of active ingredient/ha) and 94% in data set [2] (500 g of active ingredient/ha). Moreover, the “Weed Heterantera” value in data set [3] (500 g of active ingredient/ha) is given as 40%; in data set [3] (1000 g of active ingredient/ha) it was 50%.
For `CCCCOC(=O)[C@@H](C)Oc1ccc(Oc2ccc(C#N)cc2F)cc1` [3.1, butyl (R)-2-[4-(4-cyano-2-fluorophenoxy)phenoxy]propionate], the “Crop plant transplanted rice” value in data set [1] (125 g of active ingredient/ha, run-in method, 25 days after application) worked out at 0%; in data set [1] (setting [6]), 0%. Moreover, the “Weed Sagittaria pygm.” value in data set [4] (125 g of active ingredient/ha) and in data set [4] (250 g of active ingredient/ha) was 0% throughout. The “Weed Scirpus junc.” value in data set [2] (125 g of active ingredient/ha) and in data set [2] (250 g of active ingredient/ha) was 0% in each case. Besides, the “Weed Heterantera” value in data set [3] (125 g of active ingredient/ha) and in data set [3] (250 g of active ingredient/ha) was 0% each time.
Turning to `CCC(=O)Nc1ccc(Cl)c(Cl)c1` [2.2, 3′,4′-dichloropropionanilide], the “Crop plant transplanted rice” value in data set [1] (setting [7]) is recorded as 0%; in data set [1] (1000 g of active ingredient/ha, run-in method, 25 days after application), 0%. In addition, the “Weed Sagittaria pygm.” value in data set [4] (500 g of active ingredient/ha) and in data set [4] (1000 g of active ingredient/ha) was 0% in each case. Moreover, the “Weed Scirpus junc.” value worked out at 0% in data set [2] (500 g of active ingredient/ha) and 35% in data set [2] (1000 g of active ingredient/ha). Moreover, the “Weed Heterantera” value in data set [3] (1000 g of active ingredient/ha) is 0%.
On to `Clc1cc(Cl)nc(-c2ccccc2)n1` [VI, 4,6-dichloro-2-phenylpyrimidine], for which the “Crop plant transplanted rice” value in data set [1] (in vivo) turned out to be 0%. The “Weed Sagittaria pygm.” value in data set [4] (125 g of active ingredient/ha) was 0%. Besides, the “Weed Heterantera” value in data set [3] (125 g of active ingredient/ha) was 0%.
As for `COc1cc(OC)nc(Sc2cccc3c2C(=O)OC3C)n1` (stereo not shown) [I], the “Crop plant transplanted rice” value turned out to be 0% in data set [1] (setting [5]); 0% in data set [1] (120 g of active ingredient/ha, run-in method, 25 days after application); 0% in data set [1] (240 g of active ingredient/ha, run-in method, 25 days after application). Moreover, the “Weed Sagittaria pygm.” value in data set [4] (60 g of active ingredient/ha), in data set [4] (120 g of active ingredient/ha) and in data set [4] (240 g of active ingredient/ha) was 0% each time. Moreover, the “Weed Scirpus junc.” value was 0% in data set [2] (60 g of active ingredient/ha), 50% in data set [2] (120 g of active ingredient/ha) and 92% in data set [2] (240 g of active ingredient/ha). The “Weed Heterantera” value in data set [3] (60 g of active ingredient/ha) was 0%; in data set [3] (120 g of active ingredient/ha), 0%; in data set [3] (240 g of active ingredient/ha), 70%.
Consider `COCCOc1ccccc1S(=O)(=O)NC(=O)Nc1nc(OC)nc(OC)n1` [1.3], for which the “Crop plant transplanted rice” value in data set [1] (6 g of active ingredient/ha, run-in method, 25 days after application) was 0%; in data set [1] (12 g of active ingredient/ha, run-in method, 25 days after application) it was 0%; in data set [1] (24 g of active ingredient/ha, run-in method, 25 days after application) it was 15%. The results for the “Weed Sagittaria pygm.” value in data set [4] (6 g of active ingredient/ha), in data set [4] (12 g of active ingredient/ha) and in data set [4] (24 g of active ingredient/ha) were 70%, 75% and 94%, respectively.
